Measurements published in patent publication US10562903B2, “Bridged piperidine derivatives” (Hoffmann-La Roche Inc., priority 2015, dated 2020).

Target: γ-secretase (Homo sapiens, UniProt P49768)
Test: Cellular γ-secretase assay (inhibition of Aβ42 secretion, AlphaLisa)
Format: cell-based
Conditions: Human neuroglioma H4 cells overexpressing human APP695 Swedish double mutation (K595N/M596L); 24 hr compound incubation; secreted Aβ42 in supernatant
Protocol: Human neuroglioma H4 cells overexpressing human APP695 with the Swedish double mutation (K595N/M596L) were plated at 30,000 cells/well/100 μl in 96-well plates in IMDM media containing 10% FCS, 0.2 mg/l Hygromycin B and incubated at 37° C., 5% CO2.
3-4 hr post plating, compounds are a diluted in media and 50 μl is added as 1.5-fold concentrate to achieve the final concentration. Compound incubation is performed for 24 hr. Final doses typically range from 4 μM down to 0.0013 μM in half-log steps resulting in a eight point dose response curve.
Appropriate controls using vehicle only and reference compound were applied to this assay. The final concentration of Me2SO was 0.4%.
After incubation at 37° C., 5% CO2, the supernatant was subjected to quantification of secreted Aβ42 by the means of an AlphaLisa assay kit (Human Amyloid beta 1-42 Kit: Cat # AL203C, Perkin Elmer). 20 μl of the cell culture supernatant was transferred to an assay plate. Then 10 μl of a mixture of the AlphaLisa coupled capture antibody and the biotinylated detection antibody was added and incubated for 3 hours at room temperature while softly shaking the assay plate. After a further addition of 20 μl of the Donor beads the assay plate was incubated for 30 min at room temperature and constant shaking without exposure to direct light. The assay plate was then read on a Paradigm AlphaLisa Reader using the build-in program with excitation at 680 nm and emission at […].
The measured signals were then used to calculate IC50 values for inhibition of Aβ42 secretion by nonlinear regression fit analysis using XLfit 5.3 software (IDBS).

| Molecule | EC50 [µM] |
| --- | --- |
| Cc1nsc(N2CC3CCC(C2)C3Nc2nc3c(OC(C)C(F)(F)F)cccn3n2)n1 (single isomer, unassigned) [Example 5, N-[(8-endo)-3-(3-methyl-1,2,4-thiadiazol-5-yl)-3-azabicyclo[3.2.1]octan-8-yl]-8-[(2R or 2S)-1,1,1-trifluoropropan-2-yl]oxy-[1,2,4]triazolo[1,5-a]pyridin-2-amine] | 0.027 |
| Cc1nsc(N2CC3CCC(C2)C3Nc2nc3c(OC(C)C(F)(F)F)cccn3n2)n1 (single isomer, unassigned) [Example 6, N-[(8 endo)-3-(3-methyl-1,2,4-thiadiazol-5-yl)-3-azabicyclo[3.2.1]octan-8-yl]-8-[(2S or 2R)-1,1,1-trifluoropropan-2-yl]oxy-[1,2,4]triazolo[1,5-a]pyridin-2-amine] | 0.016 |
| Cc1noc(N2CC3CCC(C2)C3Nc2nc3c(O[C@H](C)C(F)(F)F)ccc(C(F)(F)F)n3n2)n1 (single isomer, unassigned) [Example 81, N-[(8-endo)-3-(3-methyl-1,2,4-oxadiazol-5-yl)-3-azabicyclo[3.2.1]octan-8-yl]-5-(trifluoromethyl)-8-[(1R or 1S)-2,2,2-trifluoro-1-methyl-ethoxy]-[1,2,4]triazolo[1,5-a]pyridin-2-amine] | 0.043 |
| N[(8 endo)-3-(6-methylpyrimidin-4-yl)-3-azabicyclo[3.2.1]octan-8-yl]-8-(2,2,3,3,3-pentafluoropropoxy)-[1,2,4]triazolo[1,5-a]pyridin-2-amine [Example 54] | 0.014 |

Next, values leading:

| EC50 [µM] | Molecule |
| --- | --- |
| 0.006 | Cc1cc(N2CC3CCC(C2)C3Nc2nc3c(O[C@H](C)C(F)(F)F)nccn3n2)sn1 (single isomer, unassigned) [Example 35, N-[(8 endo)-3-(3-methylisothiazol-5-yl)-3-azabicyclo[3.2.1]octan-8-yl]-8-((2R or 2S)-1,1,1-trifluoropropan-2-yl)oxy)-[1,2,4]triazolo[1,5-a]pyrazin-2-amine] |
| 0.006 | Cc1cc(N2CC3CCC(C2)C3Nc2nc3c(O[C@@H](C)C(F)(F)F)nccn3n2)sn1 (single isomer, unassigned) [Example 36, N-[(8 endo)-3-(3-methylisothiazol-5-yl)-3-azabicyclo[3.2.1]octan-8-yl]-8-((2S or 2R)-1,1,1-trifluoropropan-2-yl)oxy)-[1,2,4]triazolo[1,5-a]pyrazin-2-amine] |
| 0.027 | Cc1cc(N2C[C@H]3CC[C@@H](C2)[C@H]3Nc2nc3c(OC(C)C(F)(F)F)cccn3n2)on1 (single isomer, unassigned) [Example 43, N-[(8 endo)-3-(3-methyl-1,2-oxazol-5-yl)-3-azabicyclo[3.2.1]octan-8-yl]-8-[(2R or 2S)-1,1,1-trifluoropropan-2-yl]oxy-[1,2,4]triazolo[1,5-a]pyridin-2-amine] |
